Among the targets are Cytochrome P450 2C9 (Homo sapiens, UniProt P11712); Cytochrome P450 2D6 (Homo sapiens, UniProt P10635); Cytochrome P450 3A4 (Homo sapiens, UniProt P08684).
The target of a further assay is Cytochrome P450 2C19 (Homo sapiens, UniProt P33261). Description: Cytochrome panel assay with activity outcomes. Panel member name: p450-cyp2c19 Compounds with AC50 equal or less than 10 uM are considered active. In kind it is functional. The settings on record: read-out: AC50.
Assay [1] can be described thus: cells. In kind it is functional, cell-based.
For assay [2], the target named is T1, Corticotropin-releasing factor receptor 2/Corticotropin-releasing factor-binding protein (Homo sapiens, UniProt P24387+Q13324).
T1 sequence (Q13324 whole entry): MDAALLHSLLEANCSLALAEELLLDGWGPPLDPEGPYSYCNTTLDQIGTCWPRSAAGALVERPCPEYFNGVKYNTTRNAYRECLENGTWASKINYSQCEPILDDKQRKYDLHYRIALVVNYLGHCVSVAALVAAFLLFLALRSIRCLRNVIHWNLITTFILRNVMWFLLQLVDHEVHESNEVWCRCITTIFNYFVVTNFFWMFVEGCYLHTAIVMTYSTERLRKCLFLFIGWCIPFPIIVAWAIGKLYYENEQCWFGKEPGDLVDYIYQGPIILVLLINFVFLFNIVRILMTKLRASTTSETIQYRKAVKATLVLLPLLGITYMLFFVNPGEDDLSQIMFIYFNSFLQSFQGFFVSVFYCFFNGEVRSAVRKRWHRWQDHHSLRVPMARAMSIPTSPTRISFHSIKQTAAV
T1 sequence (P24387 whole entry): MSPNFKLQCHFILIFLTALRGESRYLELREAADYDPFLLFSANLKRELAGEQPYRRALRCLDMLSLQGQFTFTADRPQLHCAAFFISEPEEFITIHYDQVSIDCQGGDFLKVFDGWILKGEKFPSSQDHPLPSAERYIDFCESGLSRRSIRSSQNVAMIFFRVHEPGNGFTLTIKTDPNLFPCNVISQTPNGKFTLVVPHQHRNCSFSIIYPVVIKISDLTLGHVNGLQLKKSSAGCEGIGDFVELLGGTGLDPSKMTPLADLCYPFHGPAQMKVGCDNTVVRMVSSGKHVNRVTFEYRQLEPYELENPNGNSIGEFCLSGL
Description: activators of CRF receptor 2 with binding protein – uHTS hits, confirmation (AID 602473). In kind it is functional. The settings on record: read-out: EC50_Mean.

The target in assay [3] is T1, Corticotropin-releasing factor receptor 2/Corticotropin-releasing factor-binding protein. Description: Dose Response confirmation of uHTS hits for small molecule antagonists of the CRF-binding protein and CRF-R2 receptor complex. In kind it is functional. The settings on record: read-out: IC50_Mean.
Assay [4] is described as follows: cells. In kind it is functional.
The target in assay [5] is T2, Polyadenylate-binding protein 1 (Homo sapiens, UniProt P11940). Description: MLLE domain peptide-binding blockers, IC50 – biochemical, fluorescence polarization, FITC-PAM2 peptide, dose response (AID 602259). In kind it is functional. The settings on record: read-out: IC50_Mean. Background: In fluorescence polarisation assays a small probe gives low polarisation when free and higher when bound to something large.

Assay [6] deals with T2, Polyadenylate-binding protein 1. Nature of the assay: MLLE binding blockers, Cy5 peptide tracer – biochemical, fluorescence polarization, Cy5-PAM2 peptide, secondary, miRNA deadenylation inhibitor project, dose response (AID 602260). In kind it is functional. The settings on record: read-out: IC50_Mean.
For a further assay, the system named is INS1. Nature of the assay: INS-1E survival protection against cytokine death – cell-based, luminescence, retest, dose response (AID 449756).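 Note: cell death triggered by IL-1 beta plus TNF-alpha plus IFN-gamma mixture; protective hits raise ATP signal compared with cytokine alone wells.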 In kind it is functional. The settings on record: Rattus norvegicus.
The next assay has as its system P388/ADR. Nature of the assay: cells. In kind it is functional. The settings on record: Mus musculus.
The next assay deals with SN12K1. Nature of the assay: cells. In kind it is functional. The settings on record: Homo sapiens.
The test system of another assay is P388. Nature of the assay: cells. The settings on record: Mus musculus. In kind it is functional.

This note sets out measurements from ChEMBL document CHEMBL1201862, “PubChem BioAssay data set” (2004).

Active and inactive are the calls of the source.

T2 sequence (P11940 whole entry, the tested form may be a part): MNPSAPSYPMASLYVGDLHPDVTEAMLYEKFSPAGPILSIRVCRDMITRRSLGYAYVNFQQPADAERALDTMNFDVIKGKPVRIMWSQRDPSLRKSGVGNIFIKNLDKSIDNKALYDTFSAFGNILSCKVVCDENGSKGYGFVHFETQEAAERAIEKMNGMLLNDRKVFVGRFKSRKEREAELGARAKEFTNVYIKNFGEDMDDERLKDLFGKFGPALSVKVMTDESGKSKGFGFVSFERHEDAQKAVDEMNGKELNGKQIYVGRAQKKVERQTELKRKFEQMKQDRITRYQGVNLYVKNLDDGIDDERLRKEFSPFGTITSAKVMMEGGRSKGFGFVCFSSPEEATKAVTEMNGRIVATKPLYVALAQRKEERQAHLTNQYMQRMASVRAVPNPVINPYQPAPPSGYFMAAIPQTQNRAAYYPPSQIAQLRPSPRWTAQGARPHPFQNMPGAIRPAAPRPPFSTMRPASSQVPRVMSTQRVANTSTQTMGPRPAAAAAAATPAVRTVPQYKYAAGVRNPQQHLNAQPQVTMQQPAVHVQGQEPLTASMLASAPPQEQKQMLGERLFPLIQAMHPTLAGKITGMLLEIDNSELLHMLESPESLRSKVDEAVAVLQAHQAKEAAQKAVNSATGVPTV
Chain of Cytochrome P450 2D6 (P10635 whole entry): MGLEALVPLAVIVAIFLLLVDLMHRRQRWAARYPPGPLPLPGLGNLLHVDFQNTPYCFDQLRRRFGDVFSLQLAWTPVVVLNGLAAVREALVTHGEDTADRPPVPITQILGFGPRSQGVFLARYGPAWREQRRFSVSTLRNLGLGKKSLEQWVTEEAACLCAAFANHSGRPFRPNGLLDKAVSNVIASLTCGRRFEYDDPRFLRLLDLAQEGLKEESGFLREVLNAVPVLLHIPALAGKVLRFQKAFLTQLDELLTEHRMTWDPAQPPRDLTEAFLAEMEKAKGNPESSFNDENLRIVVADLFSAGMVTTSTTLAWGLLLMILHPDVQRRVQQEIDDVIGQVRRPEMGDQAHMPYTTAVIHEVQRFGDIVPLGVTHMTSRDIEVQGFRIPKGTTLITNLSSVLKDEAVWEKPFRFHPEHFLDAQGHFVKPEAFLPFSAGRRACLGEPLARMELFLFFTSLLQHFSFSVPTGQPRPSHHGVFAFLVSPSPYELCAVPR
Chain of Cytochrome P450 2C9 (P11712 whole entry): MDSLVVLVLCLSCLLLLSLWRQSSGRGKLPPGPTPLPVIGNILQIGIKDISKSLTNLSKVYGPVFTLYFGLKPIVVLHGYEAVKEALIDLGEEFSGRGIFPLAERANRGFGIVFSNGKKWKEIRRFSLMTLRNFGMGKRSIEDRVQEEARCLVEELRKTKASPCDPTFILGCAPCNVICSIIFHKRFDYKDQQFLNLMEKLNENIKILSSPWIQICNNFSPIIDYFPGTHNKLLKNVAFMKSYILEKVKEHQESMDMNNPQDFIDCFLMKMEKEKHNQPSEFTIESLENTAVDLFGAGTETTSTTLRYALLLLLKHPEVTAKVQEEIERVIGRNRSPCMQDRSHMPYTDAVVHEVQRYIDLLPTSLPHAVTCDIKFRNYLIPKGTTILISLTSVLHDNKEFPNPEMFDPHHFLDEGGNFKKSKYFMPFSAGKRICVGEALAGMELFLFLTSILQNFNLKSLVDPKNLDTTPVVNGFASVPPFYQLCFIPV
Chain of Cytochrome P450 2C19 (P33261 whole entry): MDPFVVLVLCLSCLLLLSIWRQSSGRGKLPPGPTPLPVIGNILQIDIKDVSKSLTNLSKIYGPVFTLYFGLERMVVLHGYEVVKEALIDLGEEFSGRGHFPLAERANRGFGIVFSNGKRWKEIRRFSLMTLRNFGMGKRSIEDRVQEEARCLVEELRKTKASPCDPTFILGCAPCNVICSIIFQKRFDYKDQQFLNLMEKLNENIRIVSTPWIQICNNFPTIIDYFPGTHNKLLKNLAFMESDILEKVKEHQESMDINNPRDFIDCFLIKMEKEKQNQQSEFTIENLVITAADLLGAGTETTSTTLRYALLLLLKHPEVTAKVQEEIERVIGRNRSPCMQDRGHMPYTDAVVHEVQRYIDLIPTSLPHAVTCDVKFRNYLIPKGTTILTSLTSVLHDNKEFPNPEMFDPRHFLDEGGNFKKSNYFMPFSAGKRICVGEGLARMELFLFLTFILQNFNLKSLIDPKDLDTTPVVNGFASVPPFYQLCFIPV
Chain of Cytochrome P450 3A4 (P08684 whole entry): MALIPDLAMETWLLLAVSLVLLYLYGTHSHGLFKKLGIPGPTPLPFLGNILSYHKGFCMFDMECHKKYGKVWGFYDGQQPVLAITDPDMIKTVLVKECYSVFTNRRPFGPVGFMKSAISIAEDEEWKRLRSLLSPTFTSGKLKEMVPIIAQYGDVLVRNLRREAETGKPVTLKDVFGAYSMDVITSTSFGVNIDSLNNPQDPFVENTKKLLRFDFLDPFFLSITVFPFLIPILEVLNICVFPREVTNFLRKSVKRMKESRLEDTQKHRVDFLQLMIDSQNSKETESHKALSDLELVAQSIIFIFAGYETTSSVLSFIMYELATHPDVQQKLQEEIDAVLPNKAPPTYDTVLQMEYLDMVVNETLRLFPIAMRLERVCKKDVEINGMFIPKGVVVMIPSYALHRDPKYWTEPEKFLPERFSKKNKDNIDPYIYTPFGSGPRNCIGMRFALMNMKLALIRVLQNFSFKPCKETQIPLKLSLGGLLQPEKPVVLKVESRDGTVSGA

One may read the AC50 as the concentration at which the activity in the assay is half-maximal. On to `O=C(NCCO)c1ccc(Cl)cc1`, for which the AC50 on Cytochrome P450 2C19 was 2 µM (inconclusive); at Cytochrome P450 2C9, 5.01 µM (inconclusive); at Cytochrome P450 2D6 it was 2 µM (inconclusive).

For `CCc1nc(N2CCN(C(=O)c3ccco3)CC2)c2c3c(sc2n1)CCCC3`, the EC50 in the assay “cells [1]” was > 350 µM (not active).

With `O=C(COc1ccc(S(=O)(=O)NC2CCCCC2)cc1Cl)NCc1cccnc1`, the EC50 in assay [2] was > 53 µM (inactive). For the same molecule, in assay [3], the IC50 was > 47.1 µM (inactive).

For the molecule `COc1ccc(-n2c(=O)c(-c3cn(C)c4ccccc34)nc3cnc(N4CCNCC4)nc32)cc1`, the values for the AC50 on Cytochrome P450 3A4, at Cytochrome P450 2C9 and at Cytochrome P450 2D6 were 20 µM (inconclusive), 39.8 µM (inconclusive) and 20 µM (inconclusive), respectively.

Regarding `CCc1c(C)c2ccc(OCC(=O)OC)cc2oc1=O`, the IC50 in the assay “cells [4]” was 16.6 µM (active).

For the molecule `CCCc1cc(=O)[nH]c(SCC(=O)Nc2nonc2N)n1`, the IC50 in [5] and in assay [6] was > 66 µM (inactive) in each case.

In the case of `CCC(C)(C)c1ccc(OCC(=O)Nc2ccncc2)cc1`, the IC50 in “cells [4]” is 8.95 µM (active).

For the molecule `CN(CC(=O)Nc1ccc(C#N)cc1)Cc1ccc(Cl)c(Cl)c1`, the IC50 in “cells [4]” was 42.3 µM (active).

For `CSc1ccccc1NC(=O)c1cc(CC(C)C)on1`, the EC50 in [2] is > 53 µM (inactive). Further, the IC50 in assay [3] is > 47.1 µM (inactive).

For `O=C(NC(=S)Nc1ccccc1Br)c1ccco1`, the IC50 in assay [5] and in assay [6] was > 66 µM (inactive) in each case.

As to `CC(=O)c1cccc(NS(=O)(=O)c2ccc(N/C=C\C(=O)c3ccc(F)cc3)cc2)c1`, the figures for the AC50 on Cytochrome P450 2D6 and in the assay with INS1 were 8.91 µM (inconclusive) and 3.74 µM (active), respectively.

As for `NS(=O)(=O)c1ccc(/N=N\c2cnc(O)c(O)c2)cc1`, the AC50 on Cytochrome P450 2C19 is 6.31 µM (inconclusive); on Cytochrome P450 2C9 it was 6.31 µM (inconclusive); on Cytochrome P450 2D6 it was 5.01 µM (inconclusive).

For `CCCC1(C)Nc2ccccc2-c2nc3ccccc3n21` (stereo not drawn), the AC50 on Cytochrome P450 2D6 was 22.4 µM (inconclusive).

As to `COc1ccccc1-c1nc(NCc2cccnc2)c2ccccc2n1`, the AC50 at Cytochrome P450 2C19 is 39.8 µM (inconclusive); on Cytochrome P450 2D6 it was 20 µM (inconclusive).

On to `CC1(Cc2ccc3c(c2)OCO3)NC(=O)NC1=O` (stereo not drawn), for which the EC50 in [2] was > 53 µM (inactive). In assay [3], the IC50 is > 47.1 µM (inactive).

With `Cc1cc(=O)n2nc(N3CCC(C(=O)Nc4c(F)c(F)c(F)c(F)c4F)CC3)sc2n1`, in [2], the EC50 is > 53 µM (inactive). Besides, the IC50 in assay [3] is > 47.1 µM (inactive).

Turning to `N#Cc1ccc(CN2CCC3(CC2)CCN(C(=O)c2cc(C(F)(F)F)cc(C(F)(F)F)c2)CC3)cc1`, on Cytochrome P450 2D6, the AC50 was 39.8 µM (inconclusive).

Consider `Cc1cc(C)n(CC(=O)NNC(=O)COc2ccc(Br)cc2F)n1`, for which the IC50 in assay [5] and in [6] was > 66 µM (inactive) throughout.

Turning to `CCNC(=O)COC(=O)c1ccc(-c2nc3ccccc3s2)s1`, the IC50 in “cells [4]” is 5.44 µM (active).

Take `COc1ccccc1NC(=O)c1cnc(SC)nc1`: the IC50 in “cells [4]” was 49.4 µM (active).

For `Cc1ccc(C(=O)N(Cc2sccc2C)C2CCS(=O)(=O)C2)cc1` (stereo not drawn), the EC50 in assay [2] was > 53 µM (inactive). Also, the IC50 in [3] was > 47.1 µM (inactive).

Consider `COc1ccc(-c2noc(-c3cc4ccccc4oc3=O)n2)cc1`, for which, in the assay “cells [4]”, the IC50 was 5.25 µM (active).

Consider `COc1cccc(CN2CCN(c3cccc(C(F)(F)F)c3)CC2)c1OC`, for which the EC50 in assay [2] is > 53 µM (inactive). In assay [3], the IC50 is > 47.1 µM (inactive).

For `CC(C)NC[C@@H](O)COc1ccccc1-n1cccc1`, the AC50 at Cytochrome P450 2D6 is 31.6 µM (inconclusive).

On to `CC(C)N(C(=O)[C@H]1C[C@H](CC(=O)NCc2ccco2)C(=O)N2CCc3c([nH]c4cc(CCC(=O)N(C)C)ccc34)[C@]12C)C(C)C`, for which the EC50 in [2] was > 53 µM (inactive). For the same molecule, the IC50 in assay [3] was > 47.1 µM (inactive).

`COc1ccc(Cl)cc1C(=O)NNC(=O)COC(=O)c1cccs1`: in assay [2], the EC50 is > 53 µM (inactive). The IC50 in assay [3] was > 47.1 µM (inactive).

`Cc1cc([N+](=O)[O-])c2ccccc2c1NS(=O)(=O)c1ccccc1`: the EC50 in [2] was > 53 µM (inactive). In assay [3], the IC50 is > 47.1 µM (inactive).

With `O=C(NCCCCCCNC(=O)N1CCCCCC1)N1CCCCCC1`, the EC50 in [2] is > 53 µM (inactive). In addition, the IC50 in [3] is > 47.1 µM (inactive).

For the molecule `CC(=O)Nc1ccc(SC[C@H](Cc2ccccc2)N2CC[C@@H](O)CCC2=O)cc1`, the IC50 in assay [5] and in assay [6] was > 66 µM (inactive) each time.

`Oc1c(N=Nc2nn[nH]n2)ccc2ccccc12`: the IC50 is 38.9 µM (inactive) in assay [5] and > 66 µM (inactive) in [6].

In general, GI50 refers to the concentration giving 50% growth inhibition. Turning to `COc1ccc(C2C(C)C(=O)C(C)C(c3ccc(OC)cc3)N2N=O)cc1` (stereo not drawn), the figures for the GI50 with P388/ADR and in the assay on SN12K1 were > 100 µM (inactive) and 55.2 µM (inactive), respectively.

As for `O=C(CCCc1ccccc1)Nc1nncs1`, in assay [2], the EC50 is > 53 µM (inactive). Further, in [3], the IC50 is > 47.1 µM (inactive).

In the case of `Cc1cccc2nc3c(C(=O)NCCN(C)C)cccc3cc12`, the 50% growth inhibitory concentration (GI50) in the assay with P388 is 0.292 µM (active); in the assay on P388/ADR it was 0.474 µM (active); with SN12K1, 0.711 µM (active).

Consider `CN(C)CCNC(=O)c1cccc2[nH]c(-c3ccc(Cl)cc3)nc12`, for which the results for the GI50 in the assay on P388, in the assay on P388/ADR and with SN12K1 were 2.48 µM (inactive), 3.2 µM (inactive) and 3.48 µM (inactive), respectively.

In the case of `COc1cc(C2(c3ncc[nH]3)SSSCC2O)ccc1O` (stereo not drawn), the GI50 in the assay with P388 is 18.7 µM (inactive); in the assay with P388/ADR, 17.8 µM (inactive); with SN12K1, 30.5 µM (inactive).

On to `CO[C@H]1C[C@@H]2CC[C@@H](C)[C@@](O)(O2)C(=O)C(=O)N2CCCC[C@H]2C(=O)O[C@H]([C@H](C)C[C@@H]2CC[C@@H](O)[C@H](OC)C2)CC(=O)[C@H](C)C=C(C)[C@@H](O)[C@@H](OC)C(=O)[C@H](C)C[C@H](C)/C=C/C=C/C=C1C`, for which the 50% growth inhibitory concentration (GI50) in the assay on P388 and in the assay on SN12K1 was 0.1 µM (active) throughout.

As for `CC(NCCS(=O)(=O)O)C(=O)O` (stereo not drawn), the GI50 with P388, in the assay with P388/ADR and in the assay with SN12K1 was > 100 µM (inactive) in each case.

Turning to `COc1cccc2c1C(=O)c1c(O)c3c(c(O)c1C2=O)C[C@@](O)(C(C)O)C[C@@H]3OC1CC(N)C(O)C(C)O1` (stereo partly drawn), the GI50 was 0.191 µM (active) in the assay with P388, 36.6 µM (inactive) with P388/ADR and 0.0891 µM (active) in the assay on SN12K1.

Consider `CC(C)C1NC(=O)CC(c2ccccc2)N(N=O)C1c1ccccc1` (stereo not drawn), for which the GI50 was 70.1 µM (inactive) in the assay with P388, 44.5 µM (inactive) with P388/ADR and > 89.9 µM (inactive) in the assay with SN12K1.

As for `O=C1C2=C(C3=NCCc4c[nH]c1c43)c1c(Br)cc(Br)cc1CCN2`, the GI50 is 2.13 µM (inactive) in the assay on P388, 2.18 µM (inactive) with P388/ADR and 3.65 µM (inactive) in the assay with SN12K1.

For `CO/C=C1\OC(=O)C=C1OC`, the GI50 in the assay on P388, in the assay with P388/ADR and with SN12K1 was > 100 µM (inactive) throughout.

For the molecule `Cc1c2cc[n+](C)c(C)c2cc2c1[nH]c1ccccc12`, the GI50 in the assay with P388 is 4.5 µM (inactive); in the assay with P388/ADR it was > 100 µM (inactive); in the assay on SN12K1, 2.21 µM (inactive).

Turning to `O=C(O)CNS(=O)(=O)c1ccc(NC(=O)Nc2ccccc2)cc1`, the GI50 with P388, with P388/ADR and in the assay with SN12K1 was > 100 µM (inactive) throughout.

As for `Cc1c2cc[n+](Cc3ccc(I)cc3)cc2c(C)c2c1[nH]c1ccccc12`, the GI50 in the assay on P388 was 0.1 µM (active); in the assay on P388/ADR, 17.9 µM (inactive); in the assay on SN12K1, 0.208 µM (active).

Take `[H]/N=C(/N)N/C(=N/[H])NCCc1ccccc1` [PHENFORMIN]: the AC50 on Cytochrome P450 2D6 was 10 µM (inconclusive).
